Experimental data: US6897219B2, “Heteroaryl diazacycloalkanes, their preparation and use” (priority 1997, dated 2005)
Where a name gives a salt, the structure may show the parent alone.

SMILES | melting point
CN1CCCN(c2cccc([N+](=O)[O-])c2)CC1 | 163.1 to 164.4 °C
CN1CCN(c2cnc3ccccc3c2)CC1 | 116.5 to 117 °C
c1ccc2ncc(N3CCNCC3)cc2c1 | 87.7 to 88.5 °C
Clc1ccc(N2CCCNCC2)cn1 | 165 to 167 °C
C=COc1cncc(N2CCN(C)CC2)c1 (as salt: fumaric acid salt) | 136.4 to 138.2 °C
CCCCCCOc1cncc(N2CCCNCC2)c1 (as salt: fumaric acid salt) | 149.5 to 151.8 °C
O=S(=O)(Oc1cncc(N2CCCNCC2)c1)C(F)(F)F (as salt: fumaric acid salt) | 154 to 156 °C
CC1CCN(c2ccc(Cl)nn2)CCCN1 (stereo not shown) (as salt: fumaric acid salt) | 166 to 168 °C
c1ncc(N2CCCNCC2)cc1OCC1CCCCC1 (as salt: fumaric acid salt) | 163.3 to 164.5 °C
C#Cc1cncc(N2CCCNCC2)c1 (as salt: fumaric acid salt) | 172.5 to 174 °C
CCOCCOc1cncc(N2CCCNCC2)c1 (as salt: fumaric acid salt) | 139.3 to 140.4 °C
O=[N+]([O-])c1cccc(N2CCCNCC2)c1 (as salt: fumaric acid salt) | 163.1 to 164.4 °C
CCCCCOc1cncc(N2CCCNCC2)c1 (as salt: fumaric acid salt) | 155.5 to 156.7 °C
Nc1cccc(N2CCCNCC2)c1 (as salt: fumaric acid salt) | 165.4 to 167.7 °C
CCCCCCCOc1cncc(N2CCCNCC2)c1 (as salt: fumaric acid salt) | 132.8 to 136.6 °C
COc1cccc(N2CCCNCC2)c1 (as salt: fumaric acid salt) | 164.1 to 165.7 °C
Oc1cccc(N2CCCNCC2)c1 (as salt: fumaric acid salt) | 165 °C (dec.)
c1ccn(-c2cncc(N3CCCNCC3)c2)c1 (as salt: fumaric acid salt) | 174 to 175 °C
CN1CCCN(c2ccc(Cl)nn2)CC1 (as salt: fumaric acid salt) | 171 to 172 °C
CN1CCCN(c2ccc(-c3ccccc3)nn2)CC1 (as salt: fumaric acid salt) | 185 to 186 °C
CN1CCCN(c2cccnn2)CC1 (as salt: fumaric acid salt) | 137.8 to 139.3 °C
Cc1ccc(N2CCCN(C)CC2)nn1 (as salt: fumaric acid salt) | 152 to 153 °C
c1ccc(CN2CCCN(c3cccnc3)CC2)cc1 (as salt: fumaric acid salt) | 148.4 to 149 °C
CCN1CCCN(c2cccnc2)CC1 (as salt: fumaric acid salt) | 145.3 to 147.5 °C

SMILES | melting point
c1cncc(-c2cncc(N3CCCNCC3)c2)c1 (as salt: fumaric acid salt) | 160 to 162 °C
c1ccc2c(c1)ccn2-c1cncc(N2CCCNCC2)c1 (as salt: fumaric acid salt) | 193 to 195 °C
c1ccc(-c2ccc(N3CCCNCC3)nn2)cc1 (as salt: fumaric acid salt) | 187 to 189 °C
COc1ccc(N2CCCNCC2)cn1 (as salt: fumaric acid salt) | 127 to 128 °C
COc1cc(N2CCCNCC2)cnc1OC (as salt: fumaric acid salt) | 150 to 152 °C
C=COc1cncc(N2CCNCC2)c1 (as salt: fumaric acid salt) | 136.4 to 138.2 °C
COc1cnc(Cl)c(N2CCCNCC2)c1 (as salt: fumaric acid salt) | 117 to 118 °C
CCCCOc1cncc(N2CCCNCC2)c1 (as salt: fumaric acid salt) | 150 to 151 °C
C=COc1cncc(N2CCCNCC2)c1 (as salt: fumaric acid salt) | 143 to 144 °C
Cc1cnc(C)c(N2CCCNCC2)n1 (as salt: fumaric acid salt) | 149 to 151 °C
c1ccc(-c2cncc(N3CCNCC3)c2)cc1 (as salt: fumaric acid salt) | 167.5 to 168.5 °C
CCOc1cncc(N2CCCNCCC2)c1 (as salt: fumaric acid salt) | 162.5 to 164.5 °C
c1ncc(N2CCCNCC2)cc1OC1CCCC1 (as salt: fumaric acid salt) | 148 to 150 °C
CCCOc1cncc(N2CCCNCCC2)c1 (as salt: fumaric acid salt) | 150 to 152 °C
CCOc1cc(N2CCCNCC2)cnc1Br (as salt: fumaric acid salt) | 181.7 to 183.2 °C
c1cc(N2CCCC2)ncc1N1CCCNCC1 (as salt: fumaric acid salt) | 148.6 to 150.5 °C
Clc1cncc(N2CCCNCC2)c1 (as salt: fumaric acid salt) | 144.4 to 146.6 °C
Clc1nc2ccccc2nc1N1CCCNCC1 (as salt: fumaric acid salt) | 136.2 to 139.9 °C
CCCCOc1cncc(N2CCN(C)CC2)c1 (as salt: fumaric acid salt) | 136.9 to 139.2 °C
C=COc1cncc(N2CCCNCCC2)c1 (as salt: fumaric acid salt) | 142 to 144 °C
CC(C)CCOc1cncc(N2CCCNCC2)c1 (as salt: fumaric acid salt) | 139.9 to 142 °C
Brc1cncc(N2CCCNCC2)c1 (as salt: fumaric acid salt) | 180.7 to 185.4 °C
c1ccc2c(N3CCCNCC3)cncc2c1 (as salt: fumaric acid salt) | 160 to 162 °C
CN1CCN(c2cccnc2)CC1 (as salt: fumaric acid salt) [Compound 1A, 4-Methyl-1-(3-pyridyl)-piperazine] | 144.5 to 145.9 °C

SMILES | melting point
c1cncc(N2CCNCC2)c1 (as salt: fumaric acid salt) [Compound 1B, 1-(3-Pyridyl)-piperazine] | 161.7 to 164.8 °C
CCOc1cncc(N2CCNCC2)c1 (as salt: fumaric acid salt) [Compound 1D, 1-(5-Ethoxy-3-pyridyl)piperazine] | 160 to 161.2 °C
c1cncc(N2CCCNCC2)c1 (as salt: fumaric acid salt) [Compound 1F, 1-(3-Pyridyl)-homopiperazine] | 172.1 to 172.9 °C
COc1cncc(N2CCCNCC2)c1 (as salt: fumaric acid salt) [Compound 1H, 1-(5-Methoxy-3-pyridyl)-homopiperazine] | 161 to 162 °C
Clc1ccc(N2CCCNCC2)nn1 (as salt: fumaric acid salt) [Compound 1K, 1-(6-Chloro-3-pyridazinyl)-homopiperazine] | 165 to 166 °C
COc1cncc(N2CCN(C)C2)c1 (as salt: fumaric acid salt) [Compound 1M, 1-(5-Methoxy-3-pyridyl)-3-methyl-imidazolidine] | 139 to 142 °C
CCCCOc1cncc(N2CCNCC2)c1 (as salt: fumaric acid salt) [Compound 2D, 1-(5-Butoxy-3-pyridyl)piperazine] | 149.4 to 151.7 °C
CN1CCCN(c2cnc3ccccc3c2)CC1 (as salt: fumaric acid salt) [Compound 2E, 4-Methyl-1-(3-quinolinyl)-homopiperazine] | 170 to 171 °C
c1ccc2ncc(N3CCCNCC3)cc2c1 (as salt: fumaric acid salt) [Compound 2F, 1-(3-Quinolinyl)-homopiperazine] | 181 to 182 °C
c1ccc(-c2cncc(N3CCCNCC3)c2)cc1 (as salt: fumaric acid salt) [Compound 2H, 1-(5-Phenyl-3-pyridyl)-homopiperazine] | 185 to 186 °C
c1ccc2nc(N3CCCNCC3)cnc2c1 (as salt: fumaric acid salt) [Compound 2L, 1-(2-Quinoxalinyl)-homopiperazine] | 177 to 180 °C
COc1cncc(N2CCCN(C)C2)c1 (as salt: fumaric acid salt) [Compound 2M, 1-(5-Methoxy-3-pyridyl)-3-methyl-1,3-diazacyclohexane] | 149 to 151 °C
COc1cncc(N2CCNCC2)c1 (as salt: fumaric acid salt) [Compound 3B, 1-(5-Methoxy-3-pyridyl)-piperazine] | 168.5 to 170.5 °C
COc1cncc(N2CCCN(C)CC2)c1 (as salt: fumaric acid salt) [Compound 3E, 1-(5-Methoxy-3-pyridyl)-4-methyl-homopiperazine] | 145 to 147 °C
CCOc1cncc(N2CCCNCC2)c1 (as salt: fumaric acid salt) [Compound 3H, 1-(5-Ethoxy-3-pyridyl)-homopiperazine] | 157.5 to 159 °C
Clc1cncc(N2CCCNCC2)n1 (as salt: fumaric acid salt) [Compound 3K, 1-(6-Chloro-2-pyrazinyl)-homopiperazine] | 180 to 181 °C
Clc1cncc(N2CCNCC2)c1 (as salt: fumaric acid salt) [Compound 4B, 1-(5-Chloro-3-pyridyl)-piperazine] | 195 to 196 °C
CCOc1cncc(N2CCCN(C)CC2)c1 (as salt: fumaric acid salt) [Compound 4E, 1-(5-Ethoxy-3-pyridyl)-4-methyl-homopiperazine] | 150 to 152 °C
CN1CCN(c2cncc(Cl)c2)CC1 (as salt: fumaric acid salt) [Compound 5A, 1-(5-Chloro-3-pyridyl)-4-Methyl-piperazine] | 162 to 163 °C
CN1CCCN(c2cncc(-c3ccccc3)c2)CC1 (as salt: fumaric acid salt) [Compound 5E, 4-Methyl-1-(5-phenyl-3-pyridyl)-homopiperazine] | 161 to 162 °C
COc1cc(N2CCCNCC2)cnc1Cl (as salt: fumaric acid salt) [Compound 5F, 1-(6-Chloro-5-methoxy-3-pyridyl)-homopiperazine] | 196 to 197 °C
COCCOc1cncc(N2CCCNCC2)c1 (as salt: fumaric acid salt) [Compound 5H, 1-(5-Methoxyethoxy-3-pyridyl)-homopiperazine] | 126 to 127 °C
